From PubChem BioAssay (NCI)
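Test compounds were applied to cells in 96-well plates for 48 hours at 5 doses. Abbreviation: GI50, concentration required for 50% inhibition of growth. TGI: concentration producing complete growth inhibition.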

Experiments:
Assay in all cases: NCI tumour cell line growth inhibition, 48 h
[1] = test system: 786-0 renal
[2] = test system: A498 renal
[3] = test system: ACHN renal
[4] = test system: BT-549 breast
[5] = test system: CAKI-1 renal
[6] = test system: DU-145 prostate
[7] = test system: EKVX NSCLC
[8] = test system: HCT-116 colon
[9] = test system: HL-60(TB) leukemia
[10] = test system: HOP-92 NSCLC
[11] = test system: HT29 colon
[12] = test system: MALME-3M melanoma
[13] = test system: MDA-MB-231 breast
[14] = test system: MDA-N
[15] = test system: MOLT-4 leukemia
[16] = test system: NCI-H226 lung
[17] = test system: NCI-H23 lung
[18] = test system: NCI/ADR-RES ovarian
[19] = test system: OVCAR-4 ovarian
[20] = test system: OVCAR-5 ovarian
[21] = test system: PC-3 prostate
[22] = test system: SF-268 CNS
[23] = test system: SF-295 CNS
[24] = test system: SF-539 CNS
[25] = test system: SK-MEL-5 melanoma
[26] = test system: SK-OV-3 ovarian
[27] = test system: TK-10 renal
[28] = test system: U251 CNS
[29] = test system: UACC-62 melanoma
[30] = test system: A549 NSCLC
[31] = test system: CCRF-CEM leukemia
[32] = test system: COLO 205 colon
[33] = test system: HCT-15 colon
[34] = test system: HOP-62 NSCLC
[35] = test system: HS 578T breast
[36] = test system: IGROV1 ovarian
[37] = test system: K-562 leukemia
[38] = test system: KM12 colon
[39] = test system: LOX IMVI melanoma
[40] = test system: M14 melanoma
[41] = test system: MDA-MB-435
[42] = test system: NCI-H522 lung
[43] = test system: OVCAR-3 ovarian
[44] = test system: OVCAR-8 ovarian
[45] = test system: RPMI-8226 leukemia
[46] = test system: RXF 393 renal
[47] = test system: SK-MEL-2 melanoma
[48] = test system: SK-MEL-28 melanoma
[49] = test system: SN12C renal
[50] = test system: SNB-19 CNS
[51] = test system: SNB-75 CNS
[52] = test system: SR leukemia
[53] = test system: SW-620 colon
[54] = test system: UACC-257 melanoma
[55] = test system: HCC-2998 colon
[56] = test system: MCF7 breast
[57] = test system: NCI-H460 lung
[58] = test system: T-47D breast
[59] = test system: UO-31 renal

Q: Which results are given for `CN(CCNC(=O)c1cn(C)c2c1ccc1cc(Cl)c(Cl)cc12)CCNC(=O)c1cn(C)c2c1ccc1cc(Cl)c(Cl)cc12`?
A: TGI [1]: 3.28 µM; TGI [2]: 63.2 µM; TGI [3]: 3.73 µM; TGI [4]: > 75.2 µM; TGI [5]: > 100 µM; TGI [6]: 3.43 µM; TGI [7]: 10.9 µM; TGI [8]: 3.2 µM; TGI [9]: 4.23 µM; TGI [10]: 12.1 µM; TGI [11]: 3.41 µM; TGI [12]: 24.2 µM; TGI [13]: 3.25 µM; TGI [14]: 3.25 µM; TGI [15]: 0.36 µM; TGI [16]: 96 µM; TGI [17]: 22 µM; TGI [18]: > 100 µM; TGI [19]: 5.67 µM; TGI [20]: 9.98 µM; TGI [21]: 3.26 µM; TGI [22]: 15.5 µM; TGI [23]: 6.2 µM; TGI [24]: 16 µM; TGI [25]: 35.2 µM; TGI [26]: 4.59 µM; TGI [27]: > 100 µM; TGI [28]: 3.19 µM; TGI [29]: 4.88 µM

Q: `O=S(=O)(O)c1cc(O)c(N=Nc2ccc(O)cc2O)c2ccccc12` was tested. Which TGI [1] did it give?
A: > 100 µM

Q: And the TGI [30]?
A: > 100 µM

Q: And the TGI [3]?
A: > 100 µM

Q: What about the TGI [5] of the same molecule?
A: > 100 µM

Q: And the TGI [31]?
A: > 100 µM

Q: And the TGI [32]?
A: > 100 µM

Q: What about the TGI [7] of the same molecule?
A: > 100 µM

Q: And the TGI [8]?
A: > 100 µM

Q: And the TGI [33]?
A: > 100 µM

Q: And the TGI [9]?
A: > 100 µM

Q: And the TGI [34]?
A: > 100 µM

Q: And the TGI [10]?
A: > 100 µM

Q: What about the TGI [35] of the same molecule?
A: > 100 µM

Q: And the TGI [11]?
A: > 100 µM

Q: And the TGI [36]?
A: > 100 µM

Q: And the TGI [37]?
A: > 100 µM

Q: What about the TGI [38] of the same molecule?
A: > 100 µM

Q: What about the TGI [39] of the same molecule?
A: > 100 µM

Q: And the TGI [40]?
A: > 100 µM

Q: And the TGI [12]?
A: > 100 µM

Q: What about the TGI [13] of the same molecule?
A: > 100 µM

Q: And the TGI [41]?
A: > 100 µM

Q: What about the TGI [14] of the same molecule?
A: > 100 µM

Q: What about the TGI [15] of the same molecule?
A: > 100 µM

Q: And the TGI [16]?
A: 48.5 µM

Q: And the TGI [42]?
A: 95.4 µM

Q: What about the TGI [18] of the same molecule?
A: > 100 µM

Q: What about the TGI [43] of the same molecule?
A: > 100 µM

Q: What about the TGI [19] of the same molecule?
A: > 100 µM

Q: And the TGI [20]?
A: > 100 µM

Q: What about the TGI [44] of the same molecule?
A: > 100 µM

Q: And the TGI [21]?
A: > 100 µM

Q: And the TGI [45]?
A: > 100 µM

Q: And the TGI [46]?
A: > 100 µM

Q: And the TGI [22]?
A: > 100 µM

Q: What about the TGI [23] of the same molecule?
A: > 100 µM

Q: And the TGI [47]?
A: > 100 µM

Q: And the TGI [48]?
A: > 100 µM

Q: And the TGI [25]?
A: > 100 µM

Q: And the TGI [26]?
A: > 100 µM

Q: And the TGI [49]?
A: > 100 µM

Q: And the TGI [50]?
A: > 100 µM

Q: What about the TGI [51] of the same molecule?
A: > 100 µM

Q: And the TGI [52]?
A: > 100 µM

Q: What about the TGI [53] of the same molecule?
A: > 100 µM

Q: And the TGI [27]?
A: > 100 µM

Q: What about the TGI [28] of the same molecule?
A: > 100 µM

Q: What about the TGI [54] of the same molecule?
A: > 100 µM

Q: Which results are given for `CCN(CC)CCCNc1cc(OC)cc2nc3cc(Cl)ccc3nc12`?
A: GI50 [1]: 1.18 µM; TGI [1]: 3.5 µM; GI50 [2]: 1.27 µM; TGI [2]: 2.7 µM; GI50 [30]: 1.18 µM; TGI [30]: 5.3 µM; GI50 [3]: 1.33 µM; TGI [3]: 11.8 µM; GI50 [4]: 4.95 µM; TGI [4]: 15.3 µM; GI50 [5]: 1.75 µM; TGI [5]: 5.03 µM; GI50 [31]: 2.52 µM; TGI [31]: 11.1 µM; GI50 [32]: 0.956 µM; TGI [32]: 2.26 µM; GI50 [6]: 2.53 µM; TGI [6]: 12.4 µM; GI50 [7]: 3.04 µM; TGI [7]: 14.1 µM; GI50 [55]: 1.47 µM; TGI [55]: 2.92 µM; GI50 [8]: 0.508 µM; TGI [8]: 3.63 µM; GI50 [33]: 4.12 µM; TGI [33]: 35.4 µM; GI50 [9]: 2.22 µM; TGI [9]: 6.66 µM; GI50 [34]: 2.47 µM; TGI [34]: 8.44 µM; GI50 [10]: 1.69 µM; TGI [10]: 9.5 µM; GI50 [35]: 2.53 µM; TGI [35]: 9.48 µM; GI50 [11]: 0.399 µM; TGI [11]: 1.87 µM; GI50 [36]: 1.96 µM; TGI [36]: 6.78 µM; GI50 [37]: 1.54 µM; TGI [37]: 11.6 µM; GI50 [38]: 1.3 µM; TGI [38]: 3.43 µM; GI50 [39]: 0.913 µM; TGI [39]: 2.25 µM; GI50 [40]: 1.61 µM; TGI [40]: 3.02 µM; GI50 [12]: 1.68 µM; TGI [12]: 3.35 µM; GI50 [56]: 1.5 µM; TGI [56]: 6.51 µM; GI50 [13]: 2.71 µM; TGI [13]: 11.7 µM; GI50 [41]: 1.87 µM; TGI [41]: 3.97 µM; GI50 [15]: 1.28 µM; TGI [15]: 13.7 µM; GI50 [16]: 1.48 µM; TGI [16]: 3.76 µM; GI50 [17]: 1.79 µM; TGI [17]: 4.32 µM; GI50 [57]: 1.83 µM; TGI [57]: 10.3 µM; GI50 [42]: 1.34 µM; TGI [42]: 3.08 µM; GI50 [18]: 1.64 µM; TGI [18]: 8.52 µM; GI50 [43]: 2.06 µM; TGI [43]: 5.9 µM; GI50 [19]: 1.67 µM; TGI [19]: 3.51 µM; GI50 [20]: 3.56 µM; TGI [20]: 16.3 µM; GI50 [44]: 0.838 µM; TGI [44]: 10.2 µM; GI50 [21]: 1.97 µM; TGI [21]: 7.43 µM; GI50 [45]: 2.53 µM; TGI [45]: 6.25 µM; GI50 [46]: 1.25 µM; TGI [46]: 2.63 µM; GI50 [22]: 1.62 µM; TGI [22]: 8.26 µM; GI50 [23]: 2.33 µM; TGI [23]: 6.48 µM; GI50 [24]: 8.36 µM; TGI [24]: 21.7 µM; GI50 [47]: 1.75 µM; TGI [47]: 3.43 µM; GI50 [48]: 1.79 µM; TGI [48]: 3.21 µM; GI50 [25]: 1.59 µM; TGI [25]: 2.96 µM; GI50 [26]: 3.6 µM; TGI [26]: 14.6 µM; GI50 [49]: 1.09 µM; TGI [49]: 14.5 µM; GI50 [50]: 2.77 µM; TGI [50]: 11.7 µM; GI50 [51]: 1.7 µM; TGI [51]: 4.35 µM; GI50 [52]: 0.633 µM; TGI [52]: 18 µM; GI50 [53]: 0.779 µM; TGI [53]: 11.2 µM; GI50 [58]: 6.62 µM; TGI [58]: 20.7 µM; GI50 [27]: 1.85 µM; TGI [27]: 5.8 µM; GI50 [28]: 1.22 µM; TGI [28]: 3.68 µM; GI50 [54]: 1.83 µM; TGI [54]: 3.31 µM; GI50 [29]: 2.19 µM; TGI [29]: 4.25 µM; GI50 [59]: 1.19 µM; TGI [59]: 4.08 µM
